Reference: ChEMBL document CHEMBL5550107, “Fluorescent probes and degraders of the sterol transport protein Aster-A” (Bioorg Med Chem, 2024)
Activity calls are given as the source filed them. The calls are words filed in the database; no cut-off is given here.

Columns and labels:
MCF7 = test: Inhibition of autophagy in human MCF7 cells expressing eGFP-LC3; type: functional, cell-based
Protein Aster-A [1] = target: T1, Protein Aster-A (Homo sapiens, UniProt Q96CP6); test: Binding affinity to aster A (unknown origin) assessed as change in fluorescence intensity
T1 sequence (Q96CP6 whole entry): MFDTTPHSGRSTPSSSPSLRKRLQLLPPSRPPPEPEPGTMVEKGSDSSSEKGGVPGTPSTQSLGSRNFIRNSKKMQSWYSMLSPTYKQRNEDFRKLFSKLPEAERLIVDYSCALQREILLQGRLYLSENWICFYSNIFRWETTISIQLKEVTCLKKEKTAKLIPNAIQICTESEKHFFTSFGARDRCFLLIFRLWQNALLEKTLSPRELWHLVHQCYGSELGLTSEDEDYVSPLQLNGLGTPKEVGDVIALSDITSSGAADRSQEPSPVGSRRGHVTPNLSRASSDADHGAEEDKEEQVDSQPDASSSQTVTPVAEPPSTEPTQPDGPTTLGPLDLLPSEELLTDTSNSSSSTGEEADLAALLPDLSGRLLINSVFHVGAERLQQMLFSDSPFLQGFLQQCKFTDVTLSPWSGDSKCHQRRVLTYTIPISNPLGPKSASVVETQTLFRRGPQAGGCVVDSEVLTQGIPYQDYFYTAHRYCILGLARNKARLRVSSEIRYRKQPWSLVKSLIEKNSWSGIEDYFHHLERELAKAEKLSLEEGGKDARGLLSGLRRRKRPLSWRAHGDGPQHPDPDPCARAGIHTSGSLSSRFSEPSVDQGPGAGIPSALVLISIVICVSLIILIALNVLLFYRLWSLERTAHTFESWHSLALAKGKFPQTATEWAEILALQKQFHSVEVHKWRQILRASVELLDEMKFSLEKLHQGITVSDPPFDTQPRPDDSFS

[2] = target: T2, Protein Aster-A (Homo sapiens) (UniProt Q96CP6); test: Binding affinity to aster A (unknown origin) assessed as change in melting temperature by differential scanning fluorimetry analysis
T2 sequence (whole entry): T1 sequence (Q96CP6 whole entry)

[3] = target: Oxysterol-binding protein-related protein 1 (OSBPL1A) (Homo sapiens) (UniProt Q9BXW6); test: Binding affinity to ORP1 (unknown origin)
Protein Aster-A [4] = target: T1, Protein Aster-A; test: Binding affinity to aster A (unknown origin) by fluorescence polarization method
[5] = Drug uptake in human HeLa cells assessed as increase in intracellular fluorescence at 10 uM incubated for 1 hr by […] microscopic analysis; type: ADME, cell-based
Protein Aster-A [6] = target: T1, Protein Aster-A; test: Displacement of tert-butyl 2-(4-((3-(4-(3-((2-(2,6-dioxopiperidin-3-yl)-1,3-dioxoisoindolin-4-yl)amino)propoxy)butoxy)propyl)carbamoyl)benzamido)-3a,6,7,7a-tetrahydrothiazolo[5,4-c]pyridine-5(4H)-carboxylate from aster A (unknown origin) assessed as change in fluorescence intensity
Protein Aster-A [7] = target: T1, Protein Aster-A; test: Displacement of 22-NBD-Chol from aster A (unknown origin) by fluorescence polarization method
[8] = target: T3, Protein cereblon/Protein Aster-A (Homo sapiens, UniProt Q96SW2+Q96CP6); test: PROTAC activity at CRBN/aster A in human HeLa cells at 10 uM incubated for 18 hrs by Western blotting analysis; type: cell-based
Target sequence in this assay (Q96SW2 whole entry, looked up, one chain of several): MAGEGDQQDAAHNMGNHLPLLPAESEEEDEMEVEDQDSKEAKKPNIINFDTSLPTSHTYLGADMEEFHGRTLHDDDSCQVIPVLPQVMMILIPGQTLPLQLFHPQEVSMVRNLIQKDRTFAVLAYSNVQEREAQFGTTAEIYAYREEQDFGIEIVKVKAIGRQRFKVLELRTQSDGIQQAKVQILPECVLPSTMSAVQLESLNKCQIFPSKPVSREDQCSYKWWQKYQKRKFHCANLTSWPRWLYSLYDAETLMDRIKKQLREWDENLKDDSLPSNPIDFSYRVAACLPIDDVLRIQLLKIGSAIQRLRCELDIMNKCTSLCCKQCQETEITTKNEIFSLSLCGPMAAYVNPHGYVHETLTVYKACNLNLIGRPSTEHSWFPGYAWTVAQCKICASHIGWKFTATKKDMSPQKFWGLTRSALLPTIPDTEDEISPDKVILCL

[9] = target: T3, Protein cereblon/Protein Aster-A; test: PROTAC activity at CRBN/aster A in human HeLa cells assessed as aster A degradation incubated for 18 hrs by Western blotting analysis; type: cell-based
[10] = target: T2, Protein Aster-A (Homo sapiens); test: Induction of aster A degradation in human A549 cells; type: cell-based
Homo sapiens = species: Homo sapiens; test: Binding affinity to aster B (unknown origin)
[11] = target: T3, Protein cereblon/Protein Aster-A; test: PROTAC activity at CRBN/aster A in human HeLa cells assessed as aster A degradation at 10 uM incubated for 18 hrs in presence of MG132 by Western blotting analysis; type: cell-based
Target sequence in this assay (Q96SW2 whole entry, looked up, one chain of several): as above

[12] = target: Protein Aster-C (Homo sapiens) (UniProt Q8IYS0); test: Binding affinity to aster C (unknown origin)
[13] = target: T3, Protein cereblon/Protein Aster-A; test: PROTAC activity at CRBN/aster A in human HeLa cells assessed as maximum degradation incubated for 18 hrs by Western blotting analysis; type: cell-based
Target sequence in this assay (Q96SW2 whole entry, looked up, one chain of several): as above

[14] = target: T3, Protein cereblon/Protein Aster-A; test: PROTAC activity at CRBN/aster A in human HeLa cells assessed as aster A degradation at 10 uM incubated for 18 hrs in presence of MLN4924 by Western blotting analysis; type: cell-based
Target sequence in this assay (Q96SW2 whole entry, looked up, one chain of several): as above

[15] = target: T2, Protein Aster-A (Homo sapiens); test: Induction of aster A degradation in human MCF7 cells; type: cell-based
[16] = target: T4, Steroidogenic acute regulatory protein, mitochondrial (Homo sapiens) (UniProt P49675); test: Binding affinity to STARD1 (unknown origin)
T4 sequence (whole entry): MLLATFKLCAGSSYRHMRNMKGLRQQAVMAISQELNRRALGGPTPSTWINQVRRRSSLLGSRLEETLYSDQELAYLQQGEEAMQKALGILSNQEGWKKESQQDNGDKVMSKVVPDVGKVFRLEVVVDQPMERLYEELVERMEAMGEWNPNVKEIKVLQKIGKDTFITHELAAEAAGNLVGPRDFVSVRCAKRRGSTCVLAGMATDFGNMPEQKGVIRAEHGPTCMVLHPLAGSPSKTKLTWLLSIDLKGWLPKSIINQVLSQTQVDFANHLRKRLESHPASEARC

Sequence of Oxysterol-binding protein-related protein 1 (OSBPL1A) (Homo sapiens) (Q9BXW6 whole entry, looked up): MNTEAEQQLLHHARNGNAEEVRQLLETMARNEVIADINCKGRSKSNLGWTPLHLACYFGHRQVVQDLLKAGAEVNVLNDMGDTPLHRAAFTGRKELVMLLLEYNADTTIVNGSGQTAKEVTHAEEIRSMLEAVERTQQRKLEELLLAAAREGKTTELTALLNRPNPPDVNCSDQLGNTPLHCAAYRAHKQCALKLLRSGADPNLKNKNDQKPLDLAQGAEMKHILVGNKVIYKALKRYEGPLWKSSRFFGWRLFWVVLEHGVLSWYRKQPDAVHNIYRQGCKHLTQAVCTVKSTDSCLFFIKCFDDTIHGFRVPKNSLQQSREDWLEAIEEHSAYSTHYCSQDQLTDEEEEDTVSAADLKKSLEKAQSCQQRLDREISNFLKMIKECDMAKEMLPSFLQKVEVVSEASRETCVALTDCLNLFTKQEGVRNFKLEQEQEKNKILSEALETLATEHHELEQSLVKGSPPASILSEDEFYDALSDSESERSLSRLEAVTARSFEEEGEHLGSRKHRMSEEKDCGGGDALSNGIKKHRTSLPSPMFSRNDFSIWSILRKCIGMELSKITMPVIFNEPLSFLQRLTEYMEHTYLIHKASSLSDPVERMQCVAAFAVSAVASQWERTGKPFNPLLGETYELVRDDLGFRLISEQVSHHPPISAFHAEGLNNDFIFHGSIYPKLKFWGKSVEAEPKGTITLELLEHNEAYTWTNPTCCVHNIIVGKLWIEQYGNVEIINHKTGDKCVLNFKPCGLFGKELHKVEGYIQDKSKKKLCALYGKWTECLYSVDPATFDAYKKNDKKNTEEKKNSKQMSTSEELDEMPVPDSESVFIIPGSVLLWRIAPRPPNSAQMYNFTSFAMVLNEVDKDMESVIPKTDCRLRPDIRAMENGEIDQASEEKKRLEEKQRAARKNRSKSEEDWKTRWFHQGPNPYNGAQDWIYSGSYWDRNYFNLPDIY
Sequence of Protein Aster-C (Homo sapiens) (Q8IYS0 whole entry): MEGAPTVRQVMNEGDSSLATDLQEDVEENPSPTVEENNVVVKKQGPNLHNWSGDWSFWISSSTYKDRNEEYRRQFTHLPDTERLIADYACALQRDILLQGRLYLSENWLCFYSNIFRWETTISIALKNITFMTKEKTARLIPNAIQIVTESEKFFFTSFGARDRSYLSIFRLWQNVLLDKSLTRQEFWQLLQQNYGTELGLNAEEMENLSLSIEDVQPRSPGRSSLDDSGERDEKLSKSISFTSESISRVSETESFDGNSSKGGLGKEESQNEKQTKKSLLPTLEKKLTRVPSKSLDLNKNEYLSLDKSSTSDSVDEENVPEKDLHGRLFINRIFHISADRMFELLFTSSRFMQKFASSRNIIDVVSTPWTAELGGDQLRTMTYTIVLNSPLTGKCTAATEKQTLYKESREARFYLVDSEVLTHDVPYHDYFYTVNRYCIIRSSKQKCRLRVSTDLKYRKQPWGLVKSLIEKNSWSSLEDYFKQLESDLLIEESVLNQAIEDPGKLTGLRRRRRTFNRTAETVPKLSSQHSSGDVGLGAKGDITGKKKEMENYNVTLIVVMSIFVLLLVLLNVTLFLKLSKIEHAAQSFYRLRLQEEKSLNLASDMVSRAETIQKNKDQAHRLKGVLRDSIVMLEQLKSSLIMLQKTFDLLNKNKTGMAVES

Row | SMILES | Kd (Protein Aster-A [1]) [µM] | ΔTm [2] [°C] | Activity [3] | Kd (Protein Aster-A [4]) [µM] | IC50 (Protein Aster-A [7]) [µM] | Autophagy inhibition (active/not active) (MCF7) | IC50 (Protein Aster-A [6]) [µM] | also measured
1 | CC(C)(C)OC(=O)N1CCC2N=C(NC(=O)c3ccc(C(=O)NCCCOCCOCCOCCCNc4cccc5c4C(=O)N(C4CCC(=O)NC4=O)C5=O)cc3)SC2C1 (configuration not stated) | 0.086 | 5.8 | Active | 0.068 | – | Active | – | –
2 | Cc1ncsc1-c1ccc(CNC(=O)[C@H]2C[C@H](O)CN2C(=O)[C@@H](NC(=O)CCCCCCNC(=O)c2ccc(C(=O)Nc3nc4c(s3)CN(C(=O)OC(C)(C)C)CC4)cc2)C(C)(C)C)cc1 | – | 3.6 | – | – | 4.68 | – | 2.75 | –
3 | CC(C)(C)OC(=O)NCCOCCOCCNc1cccc2c1C(=O)N(C1CCC(=O)NC1=O)C2=O (configuration not stated) | > 5 | 0.3 | – | > 5 | – | – | – | –
4 | Cc1ncsc1-c1ccc(CNC(=O)[C@H]2C[C@H](O)CN2C(=O)[C@@H](NC(=O)CCCCCCCCCNC(=O)c2ccc(C(=O)Nc3nc4c(s3)CN(C(=O)OC(C)(C)C)CC4)cc2)C(C)(C)C)cc1 | – | 1.6 | – | – | > 10 | – | > 10 | –
5 | CCN(CC)CCO[C@H]1CC[C@@]2(C)C(=CC[C@@H]3[C@@H]2CC[C@]2(C)C(=O)CC[C@@H]32)C1 | – | 5.6 | – | – | – | – | – | –
6 | Cc1ncsc1-c1ccc(CNC(=O)[C@H]2C[C@H](O)CN2C(=O)[C@@H](NC(=O)COCCOCCNC(=O)c2ccc(C(=O)Nc3nc4c(s3)CN(C(=O)OC(C)(C)C)CC4)cc2)C(C)(C)C)cc1 | – | 4.4 | – | – | 3.7 | – | 1.47 | –
7 | CC(C)Oc1ccc(C(=O)Nc2nc3c(s2)CN(C(=O)OC(C)(C)C)CC3)cc1 | – | 6.8 | – | – | 1.93 | – | 1.18 | –

Now from value to compound, other results behind:

Row | Kd (Protein Aster-A [1]) [µM] | ΔTm [2] [°C] | Activity [3] | Kd (Protein Aster-A [4]) [µM] | IC50 (Protein Aster-A [7]) [µM] | SMILES | Autophagy inhibition (active/not active) (MCF7) | IC50 (Protein Aster-A [6]) [µM] | also measured
8 | > 5 | 4 | Active | 0.149 | – | CC(C)(C)OC(=O)N1CCC2N=C(NC(=O)c3ccc(C(=O)NCCOCCOCCNc4cccc5c4C(=O)N(C4CCC(=O)NC4=O)C5=O)cc3)SC2C1 (configuration not stated) | Active | – | –
9 | 0.765 | 3.2 | Active | 0.745 | – | CC(C)(C)OC(=O)N1CCC2N=C(NC(=O)c3ccc(C(=O)NCCCCCCNc4cccc5c4C(=O)N(C4CCC(=O)NC4=O)C5=O)cc3)SC2C1 (configuration not stated) | inactive | – | Drug uptake [5]: Active
10 | > 5 | 1.2 | Active | > 5 | – | CC(C)(C)OC(=O)N1CCC2N=C(NC(=O)c3ccc(C(=O)NCCCCCCCCCCNc4cccc5c4C(=O)N(C4CCC(=O)NC4=O)C5=O)cc3)SC2C1 (configuration not stated) | inactive | – | –
11 | – | 0.2 | – | – | > 10 | CC12CCC(O)CC1CCc1cnn(-c3ccccc3F)c12 (configuration not stated) | – | > 10 | –
12 | 0.083 | 5.7 | Active | 0.09 | – | CC(C)(C)OC(=O)N1CCC2N=C(NC(=O)c3ccc(C(=O)NCCCOCCCCOCCCNc4cccc5c4C(=O)N(C4CCC(=O)NC4=O)C5=O)cc3)SC2C1 (configuration not stated) | Active | – | Activity [8]: 50%; Activity [9]: Dose-Dependent Effect; DC50 [9]: 4.8 µM; Activity [10]: inactive; Activity (Homo sapiens): inactive; Activity [11]: inactive; Activity [12]: inactive; Emax [13]: 60%; Activity [14]: inactive; Activity [15]: inactive; Activity [16]: inactive
13 | 0.11 | 5 | Active | 0.037 | – | CC(C)(C)OC(=O)N1CCC2N=C(NC(=O)c3ccc(C(=O)NCCCOCCOCCCNc4cccc5c4C(=O)N(C4CCC(=O)NC4=O)C5=O)cc3)SC2C1 (configuration not stated) | – | – | –
14 | 0.088 | 4.9 | Active | 0.049 | – | CC(C)(C)OC(=O)N1CCC2N=C(NC(=O)c3ccc(C(=O)NCCOCCOCCOCCNc4cccc5c4C(=O)N(C4CCC(=O)NC4=O)C5=O)cc3)SC2C1 (configuration not stated) | – | – | –
15 | > 5 | 0.1 | – | > 5 | – | Nc1cccc2c1C(=O)N(C1CCC(=O)NC1=O)C2=O (configuration not stated) [POMALIDOMIDE] | – | – | –
